# Like-named read-outs stand apart in the source and are kept apart here.
# What was measured:
# IKr potassium channel [1] = target: T1, IKr potassium channel (Homo sapiens, UniProt Q12809)
# Description: Statistics: ns represents p>0.1. Various tests (Chi^2 test with trend, one-way ANOVA with Tukey or Kruskal-Wallis post-test with Dunn's post-test) were used. The quantitative data are presented as a mean±standard error or median with interquartile range.
# The PC1 value is obtained by analysis by main components of the variables ΔQTc (%), ΔTpTe (%) and ΔTAmp (%) and quantitatively reflects the IKr inhibition obtained three hours after taking sotalol.
# The ΔQTcF, ΔTpTe and ΔTAmp were also calculated.
# [2] = characteristic of the pill's progestogen; cited from earlier work
# torsades de pointes = experiment: Clinical case: testosterone in a person with hypogonadism and arrhythmic storm on torsades de pointes (Example 3); assay type: in vivo, human
# Description: Peripheral hypogonadism was identified in a person suffering from ischemic cardiopathy and from Erdheim-Chester disease with arrhythmic storm on torsades de pointes with long QT and notching (double peak (notch) of the T wave) promoted by iatrogenesis and bradycardia with more than seven episodes in less than one week.
# Testosterone (Androtardyl, testosterone enantate 250 mg/ml) was administered to the patient in amounts which made it possible to maintain a testosterone level making it possible to correct their hypogonadism, the bradycardia was corrected and an implantable defibrillator was implanted as secondary prevention.
# [3] = target: T2, androgen receptor (NR3C4) (Homo sapiens, UniProt P10275); settings: characteristic of the progestogen; cited from earlier work
# T2 sequence (P10275 1-920): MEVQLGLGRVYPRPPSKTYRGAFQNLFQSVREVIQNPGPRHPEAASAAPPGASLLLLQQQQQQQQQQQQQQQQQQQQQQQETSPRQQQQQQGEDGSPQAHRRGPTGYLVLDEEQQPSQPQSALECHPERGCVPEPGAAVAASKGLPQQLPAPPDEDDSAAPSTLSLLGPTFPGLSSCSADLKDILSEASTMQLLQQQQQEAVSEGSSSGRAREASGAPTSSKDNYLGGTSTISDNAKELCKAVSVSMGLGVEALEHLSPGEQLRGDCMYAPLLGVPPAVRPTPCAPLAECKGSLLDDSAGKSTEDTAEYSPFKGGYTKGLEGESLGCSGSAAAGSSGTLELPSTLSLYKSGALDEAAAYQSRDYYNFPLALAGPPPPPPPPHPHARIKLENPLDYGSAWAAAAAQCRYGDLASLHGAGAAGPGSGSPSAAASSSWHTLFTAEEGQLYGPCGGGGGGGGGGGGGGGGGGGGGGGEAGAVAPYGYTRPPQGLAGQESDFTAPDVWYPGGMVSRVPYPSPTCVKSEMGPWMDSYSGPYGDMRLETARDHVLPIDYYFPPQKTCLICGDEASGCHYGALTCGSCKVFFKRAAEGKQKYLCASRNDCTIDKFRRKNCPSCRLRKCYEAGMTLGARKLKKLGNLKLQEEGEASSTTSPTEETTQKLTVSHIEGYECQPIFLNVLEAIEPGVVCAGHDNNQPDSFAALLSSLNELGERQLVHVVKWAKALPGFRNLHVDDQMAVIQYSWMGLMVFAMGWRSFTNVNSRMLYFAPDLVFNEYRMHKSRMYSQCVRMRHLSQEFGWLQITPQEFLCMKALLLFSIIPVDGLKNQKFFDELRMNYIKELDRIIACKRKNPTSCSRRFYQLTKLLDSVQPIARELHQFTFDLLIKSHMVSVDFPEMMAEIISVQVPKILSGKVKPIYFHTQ
# [4] = system: transgenic rabbits with a long QT interval; settings: cited from earlier work
# IKr potassium channel [5] = target: T1, IKr potassium channel; experiment: ECG changes three hours after a single oral dose of 80 mg sotalol in healthy volunteers (Example 1); assay type: in vivo; set-up: from tissue; host or cells: heart of living human volunteers (in vivo ECG); settings: for decrease in TAmp / increase in TpTe: H3 after 80 mg sotalol vs basal; for subjects exhibiting a double peak (notch) / subjects exhibiting a double peak (notch), proportion: after 80 mg sotalol
# Description: Results obtained on a cohort of 995 volunteers in good health, from 18 to 60 years old, of European or North African origin, were used for the development of a marker representative of inhibition of the IKr potassium channel.
# Briefly, the electrocardiogram (ECG) of the patients (each one in triplicate, for 10 seconds) was recorded after 10 minutes at rest lying on their back. A single oral dose of 80 mg of sotalol was then given to the patients and the ECG monitoring was continued. Three hours after the sotalol had been taken, the ECG was again recorded (in triplicate) after the subjects had remained lying on their back for 10 minutes.
# The QTcF (QT corrected using Fridericia's formula), TpTe (interval between the first peak and the end of the T wave), TAmp (amplitude of the first peak of the T wave) and the presence of double peaks in the T wave (called notches) were quantified. The Fridericia correction (QTcF) was used to correct the QT with respect to the heart rate, in accordance with the ICH guidelines E14.
# TpTe was measured using the tangent method, in triplicate, on a representative heart beat (averaged representation of an ECG of 10 seconds) on the V3, V4 and V5 derivations. In the event of a double peak of the T wave (notch), the peak taken into consideration was the first peak, even if the amplitude of the T wave was smaller for this peak. The average value obtained was retained. In the event of it being impossible to measure TpTe on V3, V4 or V5, the measurement was instead carried out on V2 (for V3), or V6 (for V4/V5).
# In order to measure TAmp, positioning was on the site of the maximum amplitude of the first peak of the T wave on a representative beat (averaged representation of an ECG of 10 seconds) on the DII, V2 and V3 leads. The average of the TAmp values resulting from these three leads, and measured on three different ECGs of 10 seconds (in triplicate), was calculated and retained. If it was not possible to measure a TAmp on one of these leads (in particular because of a low value (<0.1 mV)), the V4 lead was used.
# QTcF was measured using the tangent method on the DII lead for three consecutive beats and the average value of an evaluation in triplicate was retained.
# For these parameters, the difference between the value obtained at H3 and the basal value was measured. This difference was expressed as percentage relative to the basal value, and the calculations were carried out such that the value calculated is positive.
# The following calculations were therefore carried out: ΔQTcF (%)=(QTcF at H3−QTcF basal)/(QTcF basal)×100 ΔTpTe (%)=(TpTe at H3−TpTe basal)/(TpTe basal)×100 ΔTAmp (%)=(TAmp basal−TAmp at H3)/(TAmp basal)×100
# In order to evaluate the double peaks (notches), all the ECGs were evaluated independently by two investigators. The patients were described as notchers or non-notchers, in the event of agreements between the two investigators.
# The statistical analyses were carried out with the R software (https://www.r-project.org/).
# [6] = three hours after 80 mg sotalol, difference between groups (FIG. 3)
# [7] = first of the two cohorts (exploration)
# [8] = second of the two cohorts (replication)
# [9] = three hours after single oral dose of 80 mg sotalol vs basal
# T1 sequence (Q12809 whole entry): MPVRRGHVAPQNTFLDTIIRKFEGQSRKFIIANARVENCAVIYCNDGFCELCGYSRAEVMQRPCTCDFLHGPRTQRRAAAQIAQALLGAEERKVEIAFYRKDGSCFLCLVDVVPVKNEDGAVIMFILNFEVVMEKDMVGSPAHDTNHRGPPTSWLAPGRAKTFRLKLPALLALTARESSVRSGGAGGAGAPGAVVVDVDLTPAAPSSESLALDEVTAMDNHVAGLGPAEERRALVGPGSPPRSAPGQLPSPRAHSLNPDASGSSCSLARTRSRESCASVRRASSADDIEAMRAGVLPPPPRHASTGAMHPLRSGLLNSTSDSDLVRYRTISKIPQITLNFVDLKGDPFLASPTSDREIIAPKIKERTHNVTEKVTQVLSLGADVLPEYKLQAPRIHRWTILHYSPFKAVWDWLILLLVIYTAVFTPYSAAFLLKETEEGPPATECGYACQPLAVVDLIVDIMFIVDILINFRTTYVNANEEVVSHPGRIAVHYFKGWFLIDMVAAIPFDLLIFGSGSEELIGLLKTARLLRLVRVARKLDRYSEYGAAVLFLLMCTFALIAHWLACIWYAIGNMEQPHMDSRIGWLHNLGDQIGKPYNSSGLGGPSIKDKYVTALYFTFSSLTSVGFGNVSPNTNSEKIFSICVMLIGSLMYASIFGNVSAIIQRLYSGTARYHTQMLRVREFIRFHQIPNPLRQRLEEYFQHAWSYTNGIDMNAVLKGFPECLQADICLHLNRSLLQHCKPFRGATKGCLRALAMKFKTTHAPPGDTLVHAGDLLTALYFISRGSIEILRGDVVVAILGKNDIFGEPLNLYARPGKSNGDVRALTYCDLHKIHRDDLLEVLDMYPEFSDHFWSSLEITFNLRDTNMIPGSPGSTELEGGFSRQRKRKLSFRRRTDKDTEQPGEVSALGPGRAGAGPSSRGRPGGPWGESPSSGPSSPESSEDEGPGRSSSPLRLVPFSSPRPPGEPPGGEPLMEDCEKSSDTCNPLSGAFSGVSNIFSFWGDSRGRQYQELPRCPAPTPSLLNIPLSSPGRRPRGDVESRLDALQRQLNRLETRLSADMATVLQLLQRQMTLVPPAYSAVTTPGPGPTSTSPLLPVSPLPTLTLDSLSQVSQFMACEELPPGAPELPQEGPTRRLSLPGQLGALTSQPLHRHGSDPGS
smiles,measurement,setting,value
C[C@]12CCC(=O)C=C1[C@@H]1C[C@@H]1[C@H]1[C@@H]3[C@@H]4C[C@@H]4[C@@]4(CCC(=O)O4)[C@@]3(C)CC[C@@H]12 [drospirenone],risk of drug-induced IKr inhibition,"IKr potassium channel [1]; conclusion in words, by pill type",greatest risk
same,increase in QTcF greater than that of patients taking levonorgestrel,IKr potassium channel [1]; [6],7.0 ± 2.7 ms
same,increase in QTcF greater than that of patients without hormonal contraception,IKr potassium channel [1]; [6],6.6 ± 2.6 ms
same,incidence of double peaks (notches),"IKr potassium channel [1]; three hours after administration of Sotalol, by pill type (FIG. 4)",25.8%
same,Progestogenic activity,[2],Intermediate
"CCCCCCC(=O)O[C@H]1CC[C@H]2[C@@H]3CCC4=CC(=O)CC[C@]4(C)[C@H]3CC[C@]12C [testosterone, testosterone enantate]",repolarization,"torsades de pointes; following the introduction of testosterone, one patient",normalized
same,recurrence of torsades de pointes (defibrillator monitoring),"torsades de pointes; three months following the introduction of testosterone, despite reintroduction of QTc-prolonging drug (Vemurafenob)",absence of recurrence of torsades de pointes
C[C@]12CCC3=C4CCC(=O)C=C4CC[C@H]3[C@@H]1CC[C@@]2(O)CC#N [dienogest],Androgenicity,[3],"low androgenic activity, or even an anti-androgenic activity"
CC(=O)[C@H]1CC[C@H]2[C@@H]3CCC4=CC(=O)CC[C@]4(C)[C@H]3CC[C@]12C [progesterone],effect on sudden death,[4],protective effect
C#C[C@]1(O)CC[C@H]2[C@@H]3CCC4=CC(=O)CC[C@@H]4[C@H]3CC[C@@]21CC [levonorgestrel],effect with regard to the increase in QT,IKr potassium channel [1]; conclusion in words,protective
same,incidence of double peaks (notches),"IKr potassium channel [1]; female, human, in vivo, 3 h",16.4%
same,risk of drug-induced IKr inhibition,IKr potassium channel [1]; in vivo,neutral
same,Progestogenic activity,[2],High
C#C[C@]1(O)C=C[C@H]2[C@@H]3CCC4=CC(=O)CC[C@@H]4[C@H]3CC[C@@]21CC [gestodene],incidence of double peaks (notches),"IKr potassium channel [1]; female, human, in vivo, 3 h",23.5%
same,Androgenicity,[3],Intermediate/variable
same,Progestogenic activity,[2],High
CC(C)NCC(O)c1ccc(NS(C)(=O)=O)cc1 (centres unmarked) [sotalol],average QTc increase observed with sotalol,"IKr potassium channel [1]; study of the present application, as summarised",20 ms
same,decrease in TAmp,IKr potassium channel [5]; exploration cohort,13.6±15.7%
same,increase in TpTe,IKr potassium channel [5]; exploration cohort,14.2±15.6%
same,subjects exhibiting a double peak (notch),IKr potassium channel [5]; [7],40 subjects
same,"subjects exhibiting a double peak (notch), proportion",IKr potassium channel [5]; [7],8%
same,PC1 value,"IKr potassium channel [5]; non-notchers, exploration cohort",0.3±1.1
same,PC1 value,"IKr potassium channel [5]; non-notchers, replication cohort",0.3±1.1
same,PC1 value,"IKr potassium channel [5]; notchers, exploration cohort, PC1 correlates negatively with ΔQTc, ΔTAmp, ΔTpTe",−2.5±1.5
same,PC1 value,"IKr potassium channel [5]; notchers, replication cohort",−2.3±1.8
same,decrease in TAmp,IKr potassium channel [5]; replication cohort,12.8±15.3%
same,increase in TpTe,IKr potassium channel [5]; replication cohort,15.9±20.5%
same,subjects exhibiting a double peak (notch),IKr potassium channel [5]; [8],51 subjects
same,"subjects exhibiting a double peak (notch), proportion",IKr potassium channel [5]; [8],10%
same,absolute change in the duration of QTcF,IKr potassium channel [5]; [9],21.4 ± 14 ms
same,relative change in the duration of QTcF,IKr potassium channel [5]; [9],5.5±3.5%
C#C[C@]1(O)CC[C@H]2[C@@H]3CCC4=CCCC[C@@H]4[C@H]3C(=C)C[C@@]21CC [desogestrel],incidence of double peaks (notches),"IKr potassium channel [1]; female, human, in vivo, 3 h",7.3%
same,effect with regard to the appearance of a double peak (notch) of the T wave,IKr potassium channel [1]; in vivo,protective
same,risk of drug-induced IKr inhibition,IKr potassium channel [1]; in vivo,neutral
same,Progestogenic activity,[2],High

# Reference: US11666584B2, “Steroidal hormones for the treatment and prevention of wave burst arrhythmia” (ASSISTANCE PUBLIQUE—HOPITAUX DE PARIS, priority 2016, dated 2023)
